# Results reported in patent US20060003985A1, “Enhancement of sleep with t-type calcium channel antagonists” (priority 2002, published 2006).
# Tested on: Sprague Dawley rats
# Assay: Rat sleep study with ECoG/EMG telemetry (sleep stage scoring)
# Format: in vivo
# Details: averaged over seven nights
# Description: This study examined the effects of the T-type calcium channel antagonist Compound A (6-chloro-3,4-dihydro-3-ethyl-4-phenyl-4-ethyl-2(1H)-quinazolinone; PCT WO 93/04047) on sleep by using electrocorticogram (ECoG) or electroencephalographic (EEG) measures to determine the efficacy of the T-type calcium channel antagonistin the altering the states of arousal or sleep.
# Eight adult male Sprague Dawley rats (450-550 g; Taconic Farms, Germantown, N.Y.) were subcutaneously implanted with telemetric physiologic monitors (Model F50-EET; Data Sciences International, Arden Hills, Minn.) that were used to simultaneously record both the electrocorticogram (ECoG) and electromyographic (EMG) activities. […]
# Following the completion of data collection, all data were scored with automated sleep stage analysis software, Somnologica (Medcare Co.; Buffalo, N.Y.). […] Active wake was assigned to the epoch when movement of the animal was detected within the cage, or when there was an active EMG signal and the EEG consisted of alpha and beta frequency activity. An epoch was scored as light sleep when there was no movement activity, the EMG was moderately active and the EEG consisted of either theta or theta with less than 50% of the epoch showing delta activity. Delta sleep was scored when there was no movement, reduced EMG activity, and the EEG consisted of more than 50% delta wave activity (i.e. 0.5 to 4 Hz). […]
compound,measurement,setting,value
"CCN1C(=O)Nc2ccc(Cl)cc2C1(CC)c1ccccc1 (centres unmarked) [Compound A, 6-chloro-3,4-dihydro-3-ethyl-4-phenyl-4-ethyl-2(1H)-quinazolinone]",entries into awake relative to vehicle (sleep fragmentation),"FIG. 1, 30 minute bins",reduced the entries into awake relative to vehicle
same,wake duration relative to vehicle,"FIG. 2, 30 minute bins",reduced the wake duration relative to vehicle
